Experimental data: US8932597B2 (priority 2008, dated 2015)

Test system: anti-M2 human monoclonal antibody Z3G1
Assay type: binding

Substance | Signal (peptides that show specific binding to Z3G1) | Signal (peptides that bind to Z3G1) | Binding to Z3G1 (in words)
1553 (CLLTEVGSLLCEV; epitope peptide) [compound 1553] | 2168 |  | 
1498 (CETPIRNEWGLLTEVETPICVETPIRNEW; epitope peptide; MISC_FEATURE (1)..(1): C is an attachment site for a CLIP; MISC_FEATURE (10)..(10): G is an attachment site for a CLIP; MISC_FEATURE (11)..(11): L is an attachment site for a CLIP; MISC_FEATURE (29)..(29): W is an attachment site for a CLIP) [compound 1498] |  | 1817 | 
1568 (ILLTEVETPIRNEWGCRCNDSSD; epitope peptide) [compound 1568] | 1044 |  | 
1278 (MSLYTEVETPIRNEWGCRCN; epitope peptide) [compound 1278] |  | 1313 | 
1496 (CEVETPIRNELLTEVETPICVETPIRNEW; epitope peptide; MISC_FEATURE (1)..(1): C is an attachment site for a CLIP; MISC_FEATURE (10)..(10): E is an attachment site for a CLIP; MISC_FEATURE (11)..(11): L is an attachment site for a CLIP; MISC_FEATURE (29)..(29): W is an attachment site for a CLIP) [compound 1496] |  | 1625 | 
1316 (CSLLCEVETPIRNE; epitope peptide) [compound 1316] |  | 2527 | 
1326 (MSLLCEVETPIRCE; epitope peptide) [compound 1326] |  | 2772 | 
1373 (SLLCEVETPIRNEWGC; epitope peptide) [compound 1373] |  | 2281 | 
1264 (MVLLTEVETPIRNEWGCRCN; epitope peptide) [compound 1264] |  | 2465 | 
1397 (CLLTEVCTPIRNEWG; epitope peptide) [compound 1397] |  | 1634 | 
1271 (MSLFTEVETPIRNEWGCRCN; epitope peptide) [compound 1271] |  | 2115 | 
CSLLTEVGSLLTEV (epitope peptide) [SEQ ID NO: 283] |  |  | recognized
1387 (SLLCEVETPIRNEWC; epitope peptide) [compound 1387] |  | 2406 | 
1305 (MSLLTEVKTPIRNEWGCRCN; epitope peptide) [compound 1305] |  | 2708 | 
1578 (SLLAEVETPIRNEWGCRCNDSSD; epitope peptide) [compound 1578] | 2356 |  | 
1552 (SLLCEVGSLCTEV; epitope peptide) [compound 1552] | 2722 |  | 
1569 (KLLTEVETPIRNEWGCRCNDSSD; epitope peptide) [compound 1569] | 1826 |  | 
1338 (MSLLCEVGMSLCTEV; epitope peptide) [compound 1338] |  | 2595 | 
1288 (MSLLMEVETPIRNEWGCRCN; epitope peptide) [compound 1288] |  | 2847 | 
1321 (MCLLTEVETCIRNE; epitope peptide) [compound 1321] |  | 1948 | 
1273 (MSLMTEVETPIRNEWGCRCN; epitope peptide) [compound 1273] |  | 2804 | 
1297 (MSLLTQVETPIRNEWGCRCN; epitope peptide) [compound 1297] |  | 1697 | 
1390 (SLLCEVETPIRCEWG; epitope peptide) [compound 1390] |  | 2601 | 

Substance | Signal (peptides that show specific binding to Z3G1) | Signal (peptides that bind to Z3G1) | Binding to Z3G1 (in words)
1572 (PLLTEVETPIRNEWGCRCNDSSD; epitope peptide) [compound 1572] | 1641 |  | 
1393 (SLLCEVETCIRNEWG; epitope peptide) [compound 1393] |  | 2531 | 
1341 (MSLLCEVGMSLLCEV; epitope peptide) [compound 1341] |  | 2851 | 
1350 (MSLLCEVGMCLCTCV; epitope peptide) [compound 1350] |  | 2664 | 
1320 (MCLLTEVETPCRNE; epitope peptide) [compound 1320] |  | 2404 | 
1563 (DLLTEVETPIRNEWGCRCNDSSD; epitope peptide) [compound 1563] | 2320 |  | 
1588 (SLLREVETPIRNEWGCRCNDSSD; epitope peptide) [compound 1588] | 2286 |  | 
1591 (SLLYEVETPIRNEWGCRCNDSSD; epitope peptide) [compound 1591] | 2181 |  | 
1494 (CLTEVETPIRLLTEVETPICVETPIRNEW; epitope peptide; MISC_FEATURE (1)..(1): C is an attachment site for a CLIP; MISC_FEATURE (10)..(10): R is an attachment site for a CLIP; MISC_FEATURE (11)..(11): L is an attachment site for a CLIP; MISC_FEATURE (29)..(29): W is an attachment site for a CLIP) [compound 1494] |  | 2443 | 
1550 (SLLCEVGCLLTEV; epitope peptide) [compound 1550] | 1997 |  | 
1365 (SLLCEVETCIRNE; epitope peptide) [compound 1365] |  | 2305 | 
1478 (CLTEVETPIRLLTEVETPICEVETPIRNE; epitope peptide; MISC_FEATURE (1)..(1): C is an attachment site for a CLIP; MISC_FEATURE (10)..(10): R is an attachment site for a CLIP; MISC_FEATURE (11)..(11): L is an attachment site for a CLIP; MISC_FEATURE (29)..(29): E is an attachment site for a CLIP) [compound 1478] |  | 1681 | 
1361 (SLLCEVETPIRNC; epitope peptide) [compound 1361] |  | 2460 | 
1272 (MSLHTEVETPIRNEWGCRCN; epitope peptide) [compound 1272] |  | 2058 | 
1279 (MSLLAEVETPIRNEWGCRCN; epitope peptide) [compound 1279] |  | 2807 | 
1265 (MWLLTEVETPIRNEWGCRCN; epitope peptide) [compound 1265] |  | 2615 | 
1590 (SLLWEVETPIRNEWGCRCNDSSD; epitope peptide) [compound 1590] | 2221 |  | 
1396 (SLLCEVETPIRNEWG; epitope peptide) [compound 1396] |  | 2384 | 
1580 (SLLEEVETPIRNEWGCRCNDSSD; epitope peptide) [compound 1580] | 2420 |  | 
1256 (MILLTEVETPIRNEWGCRCN; epitope peptide) [compound 1256] |  | 1634 | 
1293 (MSLLSEVETPIRNEWGCRCN; epitope peptide) [compound 1293] |  | 2790 | 
1556 (CSCLCEVGSLLCEV; epitope peptide) [compound 1556] | 1583 |  | 
